Drawing on patent US20260224571A1, “AZACYCLOALKANE COMPOUND AND PHARMACEUTICAL COMPOSITION, AND USE THEREOF” (Prime Gene Therapeutics Co., Ltd., priority 2023, published 2026), this text covers IC50 for 22 compounds.

pIC50: −log10 of the molar value. Counter-ions that a name gives are not always drawn. Bounds are passed on as bounds.

In one experiment the target is ROCK1 (Homo sapiens, UniProt Q13464). Nature of the experiment: ROCK1 kinase enzymatic activity (HTRF, STK2 substrate). The experiment is classed as biochemical. Conditions: ROCK1 kinase reacted at room temperature for 20 minutes. The source says: (§1) The kinase activity data was expressed by comparing the kinase activity of the test compound and that of the blank group (containing only DMSO), and the IC50 value was obtained by curve fitting using Prism software (GraphPad7.0).
Sequence of ROCK1 (Q13464 whole entry): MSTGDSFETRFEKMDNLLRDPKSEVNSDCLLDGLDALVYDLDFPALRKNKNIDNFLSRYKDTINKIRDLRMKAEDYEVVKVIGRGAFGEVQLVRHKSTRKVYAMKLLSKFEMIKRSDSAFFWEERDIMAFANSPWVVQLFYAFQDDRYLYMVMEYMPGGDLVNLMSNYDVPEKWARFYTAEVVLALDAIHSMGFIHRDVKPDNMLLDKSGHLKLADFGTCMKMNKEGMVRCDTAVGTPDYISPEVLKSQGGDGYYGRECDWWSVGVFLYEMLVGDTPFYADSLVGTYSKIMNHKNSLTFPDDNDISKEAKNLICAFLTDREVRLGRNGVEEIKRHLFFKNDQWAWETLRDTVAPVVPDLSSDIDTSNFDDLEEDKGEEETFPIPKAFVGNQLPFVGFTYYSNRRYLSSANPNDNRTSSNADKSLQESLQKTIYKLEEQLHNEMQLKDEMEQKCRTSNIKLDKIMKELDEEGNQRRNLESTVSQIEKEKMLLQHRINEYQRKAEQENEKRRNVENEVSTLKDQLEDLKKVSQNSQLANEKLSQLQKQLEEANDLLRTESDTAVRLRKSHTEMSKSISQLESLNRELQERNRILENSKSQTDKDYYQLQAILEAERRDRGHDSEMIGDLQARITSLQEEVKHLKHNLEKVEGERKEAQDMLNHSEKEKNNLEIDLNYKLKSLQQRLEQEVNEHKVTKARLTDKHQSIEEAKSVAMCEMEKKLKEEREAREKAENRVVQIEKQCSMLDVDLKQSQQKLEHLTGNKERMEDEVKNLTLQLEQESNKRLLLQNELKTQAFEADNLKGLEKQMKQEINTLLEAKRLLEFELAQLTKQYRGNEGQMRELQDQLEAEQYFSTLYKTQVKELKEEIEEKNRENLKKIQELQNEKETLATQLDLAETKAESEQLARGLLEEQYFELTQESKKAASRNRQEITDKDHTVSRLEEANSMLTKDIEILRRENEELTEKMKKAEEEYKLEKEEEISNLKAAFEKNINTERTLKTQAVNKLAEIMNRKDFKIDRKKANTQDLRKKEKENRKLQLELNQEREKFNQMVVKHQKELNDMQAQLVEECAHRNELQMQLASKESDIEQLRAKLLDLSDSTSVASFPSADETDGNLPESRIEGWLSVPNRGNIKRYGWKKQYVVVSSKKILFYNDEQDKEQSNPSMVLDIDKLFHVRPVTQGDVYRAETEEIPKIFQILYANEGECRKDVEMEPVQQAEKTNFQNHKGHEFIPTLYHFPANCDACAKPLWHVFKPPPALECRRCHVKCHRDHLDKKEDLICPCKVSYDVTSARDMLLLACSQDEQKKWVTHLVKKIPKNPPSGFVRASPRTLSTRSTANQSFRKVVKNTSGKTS
Background: Time-resolved FRET reads energy transfer from a long-lived donor to a nearby acceptor.

In another experiment the target is ROCK2 (Homo sapiens, UniProt O75116). In words: ROCK2 kinase enzymatic activity (HTRF, STK2 substrate). The experiment is classed as biochemical. As to conditions: ROCK2 kinase reacted at room temperature for 30 minutes.
Sequence of ROCK2 (O75116 whole entry): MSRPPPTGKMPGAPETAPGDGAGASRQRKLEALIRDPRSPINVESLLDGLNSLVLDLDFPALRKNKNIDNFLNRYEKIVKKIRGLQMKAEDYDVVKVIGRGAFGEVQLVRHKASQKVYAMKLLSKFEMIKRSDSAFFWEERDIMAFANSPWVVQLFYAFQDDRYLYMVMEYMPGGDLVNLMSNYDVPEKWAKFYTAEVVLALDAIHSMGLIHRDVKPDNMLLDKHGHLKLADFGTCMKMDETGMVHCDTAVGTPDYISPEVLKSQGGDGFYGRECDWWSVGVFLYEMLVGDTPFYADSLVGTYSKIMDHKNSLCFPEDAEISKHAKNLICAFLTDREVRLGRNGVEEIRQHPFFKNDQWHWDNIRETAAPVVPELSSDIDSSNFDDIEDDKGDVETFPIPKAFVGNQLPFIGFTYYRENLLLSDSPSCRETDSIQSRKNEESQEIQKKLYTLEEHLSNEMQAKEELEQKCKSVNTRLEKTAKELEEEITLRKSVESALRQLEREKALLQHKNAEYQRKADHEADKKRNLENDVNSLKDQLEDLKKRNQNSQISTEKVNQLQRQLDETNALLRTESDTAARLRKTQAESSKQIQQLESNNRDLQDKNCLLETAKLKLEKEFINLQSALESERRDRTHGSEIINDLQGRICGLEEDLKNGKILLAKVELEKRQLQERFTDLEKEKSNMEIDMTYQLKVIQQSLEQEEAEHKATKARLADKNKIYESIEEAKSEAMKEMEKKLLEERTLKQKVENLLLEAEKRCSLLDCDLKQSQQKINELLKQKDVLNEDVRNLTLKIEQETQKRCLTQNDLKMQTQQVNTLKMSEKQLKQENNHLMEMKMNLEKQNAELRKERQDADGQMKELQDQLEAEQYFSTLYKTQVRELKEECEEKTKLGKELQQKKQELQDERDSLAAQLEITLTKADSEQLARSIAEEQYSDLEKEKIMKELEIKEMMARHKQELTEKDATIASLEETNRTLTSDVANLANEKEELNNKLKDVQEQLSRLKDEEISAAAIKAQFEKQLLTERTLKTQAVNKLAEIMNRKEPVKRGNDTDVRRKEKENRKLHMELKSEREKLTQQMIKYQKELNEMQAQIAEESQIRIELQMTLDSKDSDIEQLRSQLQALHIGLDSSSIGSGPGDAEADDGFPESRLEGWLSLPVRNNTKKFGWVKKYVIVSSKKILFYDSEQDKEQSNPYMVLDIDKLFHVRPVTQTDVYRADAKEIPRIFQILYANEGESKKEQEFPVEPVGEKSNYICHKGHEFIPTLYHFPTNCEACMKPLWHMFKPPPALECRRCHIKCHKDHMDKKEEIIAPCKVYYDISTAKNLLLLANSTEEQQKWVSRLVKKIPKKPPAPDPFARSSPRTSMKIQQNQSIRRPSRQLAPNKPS
Description: as §1

Experiment [1] has as its system phosphorylation of myosin light chain T18/S19. Nature of the experiment: In Cell Western for phosphorylation of myosin light chain in A7r5 cells. The format is cell-based. Conditions: rat smooth muscle cell line A7r5, 1 hour with compound, phospho-MLC-T18/S19; read-out: cellular activity IC50. The source says:
The rat smooth muscle cell line A7r5 was used, and the A7r5 cell culture conditions were DMEM containing 10% FBS. Phspho-MLC-T18/S19 specific antibody and a second detection antibody were used to detect the phosphorylation level of myosin light chain by In Cell Western. Cells treated with positive compounds were used as positive controls, while the group without compounds but with compound solvents was used as negative controls. DRAQ5 stained cell nuclei were used as internal references. GraphPad Prism 7.0 software was used, and fitting was carried out by using a non-linear regression curve with varying slopes to determine the absolute IC50 value.
On the first day, A7r5 cells were resuspended in serum-free medium and seeded into 384 wells of PDL coated transparent black plates at a density of 5000 cells per well. Serum starvation culture was performed for 4 hours, and the cells were incubated with the compound in serum-free medium for 1 hour. 50 μL of 8% PFA (polyformaldehyde) was added to each well and fixed at room temperature for 1 hour. The liquid in the wells was discard and 90 μL of ice methanol was added to each well to permeabilize the cells at 4° C. for 1 hour. Then, PBST (0.1% Tween20-PBS) was added using an automatic separator to wash three times. After patting the plate for drying, 50 μL blocking solution was added to each well for sealing at room temperature for 1 hour. The phspho-MLC-T18/S19 specific antibody was diluted with the blocking solution at a ratio of 1:200. After adding 20 μL to each well, incubation was carried out overnight at 4° C. with a sealed film.
On the second day, the liquid in the wells was discarded and PBST was added using an automatic separator to wash the plate 5 times. After patting the plate for drying, the second detection antibody was diluted with blocking solution at a ratio of 1:800 and DRAQ5 at a ratio of 1:1000. After adding 20 μL to each well, incubation was carried out at room temperature for 1 hour. Then, the liquid in the wells was discarded and PBST was added using an automatic separator to wash the plate 3 times, followed by adding ddH2O to wash the plate 3 times. After patting the plate for drying, it was scanned using a LICOR Odyssey near-infrared imaging scanner.

With `CNC(=O)c1nn(C2(CC#N)CN(S(=O)(=O)CC(F)(F)F)C2)cc1-c1ncnc2[nH]ccc12` [Example 62, 1-(3-(cyanomethyl)-1-((2,2,2-trifluoroethyl)sulfonyl)azetidine-3-yl)-N-methyl-4-(7H-pyrrolo[2,3-d]pyrimidin-4-yl)-1H-pyrazol-3-formamide], the pIC50 was under 7.00 against ROCK1, under 7.00 at ROCK2 and under 5.00 in experiment [1].
For the compound `Cn1cc(Nc2cc(-c3cn(C4(CC#N)CN(S(C)(=O)=O)C4)nc3N)ncn2)cn1` [Example 69], the values for the pIC50 (against ROCK1; against ROCK2; in experiment [1]) were under 7.00, under 7.00 and under 5.00, respectively.
For `N#CCC1(n2cc(-c3ncnc4[nH]ccc34)c(N)n2)CN(S(=O)(=O)CC(F)(F)F)C1` [Example 1, 2-(3-(3-amino-4-(7-H-pyrrolo[2,3-d]pyrimidin-4-yl)-1H-pyrazol-1-yl)-1-((2,2,2-trifluoroethyl)sulfonyl)azetidine-3-yl)acetonitrile], the pIC50 was over 8.00 on ROCK1, over 8.00 against ROCK2 and 5.30 in experiment [1].
In the case of `N#CCC1(n2cc(-c3ncnc4[nH]ccc34)c(N)n2)CN(S(=O)(=O)C(F)(F)F)C1` [Example 2, 2-(3-(3-amino-4-(7H-pyrrolo[2,3-d]pyrimidin-4-yl)-1H-pyrazol-1-yl)-1-((trifluoromethyl)sulfonyl)azetidine-3-yl)acetonitrile], the negative logarithm of the IC50 (pIC50) is over 8.30 against ROCK1, over 8.30 against ROCK2 and 7.96 in experiment [1].
Consider `C[C@H](N)CS(=O)(=O)N1CC(CC#N)(n2cc(-c3ncnc4[nH]ccc34)c(N)n2)C1` [Example 87, (S)-2-(3-(3-amino-4-(7H-pyrrolo[2,3-d]pyrimidin-4-yl)-1H-pyrazol-1-yl)-1-((2-aminopropyl)sulfonyl)azetidine-3-yl)acetonitrile trifluoroacetate salt], for which the pIC50 was over 8.30 at ROCK1, over 8.30 against ROCK2 and 6.17 in experiment [1].
`CCS(=O)(=O)N1CC(CC#N)(n2cc(-c3cc(-c4cnn(C)c4)nc4ccnn34)c(N)n2)C1` [Example 82]: the pIC50 against ROCK1 was under 7.00; against ROCK2, under 7.00; in experiment [1], under 5.00.
Consider `Cc1ccc(C(=O)OCc2ccc([C@@H](CN)C(=O)Nc3ccc4cnccc4c3)cc2)c(C)c1` [Netarsudil, reference compound], for which, in experiment [1], the pIC50 was 6.54.
Consider `CN1CCC(Nc2ncnc(-c3cn(C4(CC#N)CN(S(C)(=O)=O)C4)nc3N)n2)CC1` [Example 71, 2-(3-(3-amino-4-(4-((1-methylpiperidin-4-yl)amino)-1,3,5-triazin-2-yl)-1H-pyrazol-1-yl)-1-(methylsulfonyl)azetidine-3-yl)acetonitrile], for which the pIC50 on ROCK1 and against ROCK2 was under 7.00 throughout.
Regarding `N#CCC1(n2cc(-c3ncnc4[nH]ccc34)c(N)n2)CN(C(=O)C2(C#N)CC2)C1` [Example 26, 1-(3-(3-amino-4-(7H-pyrrolo[2,3-d]pyrimidin-4-yl)-1H-pyrazol-1-yl)-3-(cyanomethyl)azetidine-1-carbonyl)cyclopropane-1-nitrile], the pIC50 against ROCK1 and at ROCK2 was over 8.00 in each case.
Regarding `CC(C)S(=O)(=O)N1CC(CC#N)(n2cc(-c3ncnc4[nH]ccc34)c(O)n2)C1` [Example 57, 2-(3-(3-hydroxy-4-(7H-pyrrolo[2,3-d]pyrimidin-4-yl)-1H-pyrazol-1-yl)-1-(isopropylsulfonyl)azetidine-3-yl)acetonitrile], the pIC50 at ROCK1 was over 7.30; on ROCK2, under 7.00.
Turning to `CN(C)CCNS(=O)(=O)N1CC(CC#N)(n2cc(-c3ncnc4[nH]ccc34)c(N)n2)C1` [Example 52, 3-(3-amino-4-(7H-pyrrolo[2,3-d]pyrimidin-4-yl)-1H-pyrazol-1-yl)-3-(cyanomethyl)-N-(2-(dimethylamino)ethyl)azetidine-1-sulfonamide], the pIC50 at ROCK1 and against ROCK2 was over 8.00 each time.
For the compound `N#CCC1(n2cc(-c3ncnc4[nH]ccc34)c(N)n2)CN(S(=O)(=O)CC(=O)NN)C1` [Example 9], the pIC50 against ROCK1 and at ROCK2 was over 8.00 throughout.
Consider `CCS(=O)(=O)N1CC(CC#N)(n2cc(-c3cc(-c4cnn(C)c4)nn4ccnc34)c(N)n2)C1` [Example 80], for which the pIC50 against ROCK1 and on ROCK2 was under 7.00 throughout.
Turning to `CNC(=O)c1nn(C2(CC#N)CN(S(=O)(=O)C(C)C)C2)cc1-c1ncnc2[nH]ccc12` [Example 64, 1-(3-(cyanomethyl)-1-(isopropylsulfonyl)azetidine-3-yl)-N-methyl-4-(7H-pyrrolo[2,3-d]pyrimidin-4-yl)-1H-pyrazol-3-formamide], the pIC50 against ROCK1 and against ROCK2 was under 7.00 each time.
In the case of `CC(N)CS(=O)(=O)N1CC(CC#N)(n2cc(-c3ncnc4[nH]ccc34)c(N)n2)C1` (stereo not shown) [Example 86, 2-(3-(3-amino-4-(7H-pyrrolo[2,3-d]pyrimidin-4-yl)-1H-pyrazol-1-yl)-1-((2-aminopropyl)sulfonyl)azetidine-3-yl)acetonitrile], the pIC50 on ROCK1 and against ROCK2 was over 8.30 in each case.
Regarding `N#CCC1(n2cc(-c3ncnc4[nH]ccc34)c(N)n2)CN(S(=O)(=O)CCC(F)(F)F)C1` [Example 4, 2-(3-(3-amino-4-(7H-pyrrolo[2,3-d]pyrimidin-4-yl)-1H-pyrazol-1-yl)-1-((3,3,3-trifluoropropyl)sulfonyl)azetidine-3-yl)acetonitrile], the pIC50 at ROCK1 and against ROCK2 was over 8.30 each time.
Turning to `N#CCC1(n2cc(-c3ncnc4[nH]ccc34)c(N)n2)CN(C(=O)NC2CC2)C1` [Example 12, 3-(3-amino-4-(7H-pyrrolo[2,3-d]pyrimidin-4-yl)-1H-pyrazol-1-yl)-3-(cyanomethyl)-N-cyclopropylazetidine-1-formamide], the pIC50 against ROCK1 and on ROCK2 was over 7.30 in each case.
As for `N#CCC1(n2cc(-c3ncnc4[nH]ccc34)c(N)n2)CN(C(=O)C2(F)CC2)C1` [Example 24, 2-(3-(3-amino-4-(7H-pyrrolo[2,3-d]pyrimidin-4-yl)-1H-pyrazol-1-yl)-1-(1-fluorocyclopropane-1-carbonyl)azetidine-3-yl)acetonitrile], the pIC50 on ROCK1 and on ROCK2 was over 7.30 throughout.
Take `CCS(=O)(=O)N1CC(CC#N)(n2cc(-c3ncnc4[nH]ccc34)c(O)n2)C1` [Example 56, 2-(1-(ethylsulfonyl)-3-(3-hydroxy-4-(7H-pyrrolo[2,3-d]pyrimidin-4-yl)-1H-pyrazol-1-yl)azetidine-3-yl)acetonitrile]: the pIC50 against ROCK1 was over 7.30; against ROCK2, under 7.00.
With `C[C@H](O)C(=O)N1CC(CC#N)(n2cc(-c3ncnc4[nH]ccc34)c(N)n2)C1` [Example 33, (S)-2-(3-(3-amino-4-(7H-pyrrolo[2,3-d]pyrimidin-4-yl)-1H-pyrazol-1-yl)-1-(2-hydroxypropionyl)azetidine-3-yl)acetonitrile], the pIC50 against ROCK1 and against ROCK2 was over 8.00 each time.
Regarding `CS(=O)(=O)N1CC(CC#N)(n2cc(-c3ccnc(NCCO)n3)c(N)n2)C1` [Example 78], the pIC50 on ROCK1 and on ROCK2 was under 7.00 in each case.
As to `CC(C)NC(=O)N1CC(CC#N)(n2cc(-c3ncnc4[nH]ccc34)c(N)n2)C1` [Example 15, 3-(3-amino-4-(7H-pyrrolo[2,3-d]pyrimidin-4-yl)-1H-pyrazol-1-yl)-3-(cyanomethyl)-N-isopropylaza-1-formamide], the pIC50 against ROCK1 and on ROCK2 was over 7.30 each time.

For orientation: pIC50 means the IC50 on a negative log10 scale, so that one unit is a factor of ten.
